Assay results: US20020045638A1, “Method of treating estrogen receptor positive carcinoma” (priority 2000, published 2002)
Like-named read-outs stand apart in the source and are kept apart here.

What was measured:
[1] = system: BG-1 human ovarian cancer cells; experiment: Inhibition of growth of BG-1 ovarian cancer cells (MTT), with MacSynergy II synergy analysis; format: cell-based; details: for inhibition at 0.005 µM / inhibition at 0.01 µM / inhibition at 0.05 µM / inhibition at 0.1 µM / inhibition at 0.2 µM / inhibition at 0.4 µM: Homo sapiens, read-out: Percent Inhibition; for Percent Inhibition: Table G, ERA-923 0 nM
Protocol: In these test procedures, rapamycin 42-ester with 3-hydroxy-2-(hydroxymethyl)-2-methylpropionic acid was used as a representative rapamycin, and 2-(4-hydroxy-phenyl)-3-methyl-1-[4-(2-piperdin-1-yl-ethoxy)-benzyl-1 H-indol-5-ol, raloxifene, and 4-hydroxytamoxifen were used as representative antiestrogens.
One day before the experiment, cells were plated in 96-well plates at a cell density of 2,500 cells/well in IMEM medium supplemented with 10% fetal bovine serum. The next day, cells were treated with various concentrations of antiestrogen and rapamycin 42-ester with 3-hydroxy-2-(hydroxymethyl)-2-methylpropionic acid (referred to as CCI-779 in the tables below). Five or six-days later, cell growth was monitored.

[2] = system: MCF-7 human breast cancer cells; experiment: Inhibition of growth of MCF-7 breast cancer cells (MTT), with MacSynergy II synergy analysis; details: for inhibition at 0.005 µM / inhibition at 0.01 µM / inhibition at 0.05 µM / inhibition at 0.1 µM / inhibition at 0.2 µM / inhibition at 0.4 µM: Homo sapiens;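 for all read-outs here: cells treated five or six days with single agents or combinations, growth read by MTT, synergy surface equals observed % inhibition minus Bliss additive prediction, values under 0% signal antagonism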
Protocol: MCF-7 human breast cancer cells were maintained at 37° C. in a humidified atmosphere of 5% CO2 and 95% air in IMEM medium supplemented with 10% fetal bovine serum. […] One day before the experiment, cells were plated in 96-well plates at a cell density of 2,500 cells/well in IMEM medium supplemented with 10% fetal bovine serum. The next day, cells were treated with various concentrations of antiestrogen and rapamycin 42-ester with 3-hydroxy-2-(hydroxymethyl)-2-methylpropionic acid (referred to as CCI-779 in the tables below). Five or six-days later, cell growth was monitored. MTT solution (20 ul) (0.5 mg/ml) was added to each well and cells were incubated for an additional 4 h. The solution was then removed and 150 ul of DMSO added. The intensity of dark blue color corresponding to number of cells was read at 540 nm with an automated plate reader.
Briefly, theoretical additive interactions were calculated from the dose-response curves of each individual drug based on Bliss independence model. The calculated additive surface was then subtracted from the experimental surface to obtain a synergy surface representing % inhibition above the calculated additive value-synergy index. […] Likewise, any peak below the 0% plane is indicative of antagonism.

CO[C@H]1C[C@@H]2CC[C@@H](C)[C@@](O)(O2)C(=O)C(=O)N2CCCC[C@H]2C(=O)O[C@H]([C@H](C)C[C@@H]2CC[C@@H](OC(=O)C(C)(CO)CO)[C@H](OC)C2)CC(=O)[C@H](C)/C=C(\C)[C@@H](O)[C@@H](OC)C(=O)[C@H](C)C[C@H](C)/C=C/C=C/C=C/1C [CCI-779, rapamycin 42-ester with 3-hydroxy-2-(hydroxymethyl)-2-methylpropionic acid]
inhibition at 0.005 µM ([1]; Table H, CCI-779 5 nM, 4-Hydroxytamoxifen 0 nM): 21.4% | inhibition at 0.01 µM ([1]; Table H, CCI-779 10 nM, 4-Hydroxytamoxifen 0 nM): 24.9% | inhibition at 0.05 µM ([1]; Table H, CCI-779 50 nM, 4-Hydroxytamoxifen 0 nM): 56.3% | inhibition at 0.1 µM ([1]; Table H, CCI-779 100 nM, 4-Hydroxytamoxifen 0 nM): 56.4% | inhibition at 0.2 µM ([1]; Table H, CCI-779 200 nM, 4-Hydroxytamoxifen 0 nM): 60.7% | inhibition at 0.4 µM ([1]; Table H, CCI-779 400 nM, 4-Hydroxytamoxifen 0 nM): 64.9% | inhibition at 0.005 µM ([1]; Table I, CCI-779 5 nM, Raloxifene 0 nM): 8.26% | inhibition at 0.01 µM ([1]; Table I, CCI-779 10 nM, Raloxifene 0 nM): 12.5% | inhibition at 0.05 µM ([1]; Table I, CCI-779 50 nM, Raloxifene 0 nM): 37.7% | inhibition at 0.1 µM ([1]; Table I, CCI-779 100 nM, Raloxifene 0 nM): 42.1% | inhibition at 0.2 µM ([1]; Table I, CCI-779 200 nM, Raloxifene 0 nM): 48.4% | inhibition at 0.4 µM ([1]; Table I, CCI-779 400 nM, Raloxifene 0 nM): 53% | Percent Inhibition ([1]; CCI-779 5 nM): 19.98% | Percent Inhibition ([1]; CCI-779 10 nM): 22.68% | Percent Inhibition ([1]; CCI-779 50 nM): 49.76% | Percent Inhibition ([1]; CCI-779 100 nM): 58.79% | Percent Inhibition ([1]; CCI-779 200 nM): 55.65% | Percent Inhibition ([1]; CCI-779 400 nM): 61.94% | increase of growth inhibition as estimated by the IC50 ([2]; CCI-779 in the presence of non-inhibitory concentrations of ERA-923): approximately 40 fold | inhibition at 0.005 µM ([2]; MCF7, read-out: Percent Inhibition, Table B, CCI-779 5 nM, 4-Hydroxytamoxifen 0 nM): -16.5% | inhibition at 0.01 µM ([2]; MCF7, read-out: Percent Inhibition, Table B, CCI-779 10 nM, 4-Hydroxytamoxifen 0 nM): 1.47% | inhibition at 0.05 µM ([2]; MCF7, read-out: Percent Inhibition, Table B, CCI-779 50 nM, 4-Hydroxytamoxifen 0 nM): 15% | inhibition at 0.1 µM ([2]; MCF7, read-out: Percent Inhibition, Table B, CCI-779 100 nM, 4-Hydroxytamoxifen 0 nM): 24.6% | inhibition at 0.2 µM ([2]; MCF7, read-out: Percent Inhibition, Table B, CCI-779 200 nM, 4-Hydroxytamoxifen 0 nM): 25.2% | inhibition at 0.4 µM ([2]; MCF7, read-out: Percent Inhibition, Table B, CCI-779 400 nM, 4-Hydroxytamoxifen 0 nM): 34% | inhibition at 0.005 µM ([2]; MCF7, read-out: Percent Inhibition, Table C, CCI-779 5 nM, Raloxifene 0 nM): -13.8% | inhibition at 0.01 µM ([2]; MCF7, read-out: Percent Inhibition, Table C, CCI-779 10 nM, Raloxifene 0 nM): -3.3% | inhibition at 0.05 µM ([2]; MCF7, read-out: Percent Inhibition, Table C, CCI-779 50 nM, Raloxifene 0 nM): 35.3% | inhibition at 0.1 µM ([2]; MCF7, read-out: Percent Inhibition, Table C, CCI-779 100 nM, Raloxifene 0 nM): 38.1% | inhibition at 0.2 µM ([2]; MCF7, read-out: Percent Inhibition, Table C, CCI-779 200 nM, Raloxifene 0 nM): 38.1% | inhibition at 0.4 µM ([2]; MCF7, read-out: Percent Inhibition, Table C, CCI-779 400 nM, Raloxifene 0 nM): 39.8% | inhibition at 0.005 µM ([2]; MCF7, read-out: Percent Inhibition, Table E, CCI-779 0 nM + CCI-779 5 nM): -4.19% | inhibition at 0.01 µM ([2]; MCF7, read-out: Percent Inhibition, Table E, CCI-779 0 nM + CCI-779 10 nM): 10.2% | inhibition at 0.05 µM ([2]; MCF7, read-out: Percent Inhibition, Table E, CCI-779 0 nM + CCI-779 50 nM): 49.8% | inhibition at 0.1 µM ([2]; MCF7, read-out: Percent Inhibition, Table E, CCI-779 0 nM + CCI-779 100 nM): 46.8% | inhibition at 0.2 µM ([2]; MCF7, read-out: Percent Inhibition, Table E, CCI-779 0 nM + CCI-779 200 nM): 53.5% | inhibition at 0.4 µM ([2]; MCF7, read-out: Percent Inhibition, Table E, CCI-779 0 nM + CCI-779 400 nM): 55.3% | inhibition at 0.005 µM ([2]; MCF7, read-out: Percent Inhibition, Table E, CCI-779 5 nM + CCI-779 5 nM): 13.2% | inhibition at 0.01 µM ([2]; MCF7, read-out: Percent Inhibition, Table E, CCI-779 5 nM + CCI-779 10 nM): 18.6% | inhibition at 0.05 µM ([2]; MCF7, read-out: Percent Inhibition, Table E, CCI-779 5 nM + CCI-779 50 nM): 49.2% | inhibition at 0.1 µM ([2]; MCF7, read-out: Percent Inhibition, Table E, CCI-779 5 nM + CCI-779 100 nM): 51% | inhibition at 0.2 µM ([2]; MCF7, read-out: Percent Inhibition, Table E, CCI-779 5 nM + CCI-779 200 nM): 58.1% | inhibition at 0.4 µM ([2]; MCF7, read-out: Percent Inhibition, Table E, CCI-779 5 nM + CCI-779 400 nM): 64.1% | inhibition at 0.005 µM ([2]; MCF7, read-out: Percent Inhibition, Table E, CCI-779 10 nM + CCI-779 5 nM): 18.8% | inhibition at 0.01 µM ([2]; MCF7, read-out: Percent Inhibition, Table E, CCI-779 10 nM + CCI-779 10 nM): 23.5%
